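Each compound was tested at five concentrations against cells in 96-well plates for 48 hours. GI50 is the concentration that inhibits growth by half. Definition used: TGI = concentration required for complete inhibition of growth.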 *1 amine or outer side, *2 acyl side, *3 side chain or, on linkers, in order; H or OH if unused. Where a SMILES comes first, the peptide text is derived from it. Bridges are numbered along the chain shown (N, C = ends). [ ]: non-standard residue; d: D form. The star is where a group is joined. Phe(3,5-F2) = N[C@@H](Cc1cc(F)cc(F)c1)C(=O)O; Pro(4R-Me) = C[C@H]1CN[C@H](C(=O)O)C1; aThr = C[C@H](O)[C@H](N)C(=O)O; Pip = O=C(O)[C@@H]1CCCCN1; X10 = Fc1cc(C2CC2)ccc1N*; CO = O=C([*:1])[*:2]
Experiments:
Assay in all cases: NCI anticancer screen, dose series, 48 h
MCF7 breast = tested on: MCF7 breast
CCRF-CEM leukemia = tested on: CCRF-CEM leukemia
K-562 leukemia = tested on: K-562 leukemia
SK-OV-3 ovarian = tested on: SK-OV-3 ovarian
OVCAR-8 ovarian = tested on: OVCAR-8 ovarian
786-0 renal = tested on: 786-0 renal
OVCAR-5 ovarian = tested on: OVCAR-5 ovarian
COLO 205 colon = tested on: COLO 205 colon
MALME-3M melanoma = tested on: MALME-3M melanoma
PC-3 prostate = tested on: PC-3 prostate

Fc1ccc(NC(=S)SCc2ccc3c(c2)OCO3)cc1F
TGI (MCF7 breast): 36.2 µM
TGI (CCRF-CEM leukemia): 77.3 µM
TGI (K-562 leukemia): 59 µM
TGI (SK-OV-3 ovarian): > 100 µM
TGI (OVCAR-8 ovarian): 35.9 µM
TGI (786-0 renal): 72.4 µM
TGI (OVCAR-5 ovarian): 46.3 µM
TGI (COLO 205 colon): 44.9 µM
TGI (MALME-3M melanoma): 76.3 µM
TGI (PC-3 prostate): 76.6 µM

CN1CCCCC1CCN1c2ccccc2Sc2ccc(Cl)cc21 (configuration not stated)
GI50 (MCF7 breast): 2.68 µM
TGI (MCF7 breast): 9 µM
GI50 (CCRF-CEM leukemia): 3.81 µM
TGI (CCRF-CEM leukemia): 13.5 µM
GI50 (K-562 leukemia): 2.6 µM
TGI (K-562 leukemia): 7.57 µM
GI50 (SK-OV-3 ovarian): 3.69 µM
TGI (SK-OV-3 ovarian): 13.7 µM
GI50 (OVCAR-8 ovarian): 3.83 µM
TGI (OVCAR-8 ovarian): 12.5 µM
GI50 (786-0 renal): 3.85 µM
TGI (786-0 renal): 14.5 µM
GI50 (OVCAR-5 ovarian): 3.65 µM
TGI (OVCAR-5 ovarian): 14 µM
GI50 (COLO 205 colon): 2.24 µM
TGI (COLO 205 colon): 4.83 µM
GI50 (MALME-3M melanoma): 2.1 µM
TGI (MALME-3M melanoma): 4.25 µM
GI50 (PC-3 prostate): 3.22 µM
TGI (PC-3 prostate): 11.7 µM

C[C@@H]1C[C@H]2C(=O)O[C@@H](C)[C@H](NC(=O)[C@H](Cc3cc(F)cc(F)c3)NC(=O)Nc3ccc(C4CC4)cc3F)C(=O)N3CCC[C@H]3C(=O)N3CCCC[C@H]3C(=O)N[C@@H](C)C(=O)N2C1 ({X10-CO}-[Phe(3,5-F2)][aThr]P[Pip]A[Pro(4R-Me)]; ester 2-C)
GI50 (MCF7 breast): 0.0381 µM
TGI (MCF7 breast): 13.9 µM
GI50 (CCRF-CEM leukemia): 0.0522 µM
TGI (CCRF-CEM leukemia): > 100 µM
GI50 (K-562 leukemia): 0.0346 µM
TGI (K-562 leukemia): > 52.3 µM
GI50 (SK-OV-3 ovarian): 0.0504 µM
TGI (SK-OV-3 ovarian): 16 µM
GI50 (OVCAR-8 ovarian): 0.0383 µM
TGI (OVCAR-8 ovarian): > 100 µM
GI50 (786-0 renal): 0.0817 µM
TGI (786-0 renal): > 38.4 µM
GI50 (OVCAR-5 ovarian): 0.0575 µM
TGI (OVCAR-5 ovarian): 3.39 µM
GI50 (COLO 205 colon): 0.0351 µM
TGI (COLO 205 colon): 1.19 µM
GI50 (MALME-3M melanoma): 0.0635 µM
TGI (MALME-3M melanoma): 5.9 µM
GI50 (PC-3 prostate): 0.0355 µM
TGI (PC-3 prostate): > 36 µM

O=C1NC(=NCCc2cccc(F)c2)S/C1=C\c1ccc2ncccc2c1
GI50 (MCF7 breast): 0.766 µM
TGI (MCF7 breast): > 25 µM
GI50 (CCRF-CEM leukemia): 1.15 µM
TGI (CCRF-CEM leukemia): > 25 µM
GI50 (K-562 leukemia): 1.01 µM
TGI (K-562 leukemia): > 25 µM
GI50 (SK-OV-3 ovarian): 4.38 µM
TGI (SK-OV-3 ovarian): > 25 µM
GI50 (OVCAR-8 ovarian): 12.8 µM
TGI (OVCAR-8 ovarian): > 25 µM
GI50 (786-0 renal): 7.15 µM
TGI (786-0 renal): > 25 µM
GI50 (OVCAR-5 ovarian): > 25 µM
TGI (OVCAR-5 ovarian): > 25 µM
GI50 (COLO 205 colon): 1.43 µM
TGI (COLO 205 colon): > 25 µM
GI50 (MALME-3M melanoma): 17.2 µM
TGI (MALME-3M melanoma): > 25 µM
GI50 (PC-3 prostate): > 25 µM
TGI (PC-3 prostate): > 25 µM

COc1ccc2c(c1)sc1nc(-c3ccccc3)c(-c3cccc4ccccc34)n12
GI50 (MCF7 breast): 0.835 µM
TGI (MCF7 breast): > 33.4 µM
GI50 (CCRF-CEM leukemia): 0.45 µM
TGI (CCRF-CEM leukemia): > 100 µM
GI50 (K-562 leukemia): 0.328 µM
TGI (K-562 leukemia): > 100 µM
GI50 (SK-OV-3 ovarian): 0.369 µM
TGI (SK-OV-3 ovarian): 2.79 µM
GI50 (OVCAR-8 ovarian): 0.771 µM
TGI (OVCAR-8 ovarian): > 100 µM
GI50 (786-0 renal): 0.848 µM
TGI (786-0 renal): > 100 µM
GI50 (OVCAR-5 ovarian): 2.07 µM
TGI (OVCAR-5 ovarian): > 100 µM
GI50 (COLO 205 colon): 0.292 µM
TGI (COLO 205 colon): 0.855 µM
GI50 (MALME-3M melanoma): > 100 µM
TGI (MALME-3M melanoma): > 100 µM
GI50 (PC-3 prostate): 0.5 µM
TGI (PC-3 prostate): > 100 µM

COc1cc(/C=N\NC(=O)CN2CCN(c3cc4c(cc3F)c(=O)c(C(=O)N/N=C/c3cc(OC)c(OC)c(OC)c3)cn4C3CC3)CC2)cc(OC)c1OC
GI50 (MCF7 breast): 0.362 µM
TGI (MCF7 breast): > 100 µM
GI50 (CCRF-CEM leukemia): 0.316 µM
TGI (CCRF-CEM leukemia): > 100 µM
GI50 (K-562 leukemia): 0.363 µM
TGI (K-562 leukemia): > 100 µM
GI50 (SK-OV-3 ovarian): 0.718 µM
TGI (SK-OV-3 ovarian): > 53.1 µM
GI50 (OVCAR-8 ovarian): 0.577 µM
TGI (OVCAR-8 ovarian): > 88.5 µM
GI50 (786-0 renal): 18.7 µM
TGI (786-0 renal): > 100 µM
GI50 (OVCAR-5 ovarian): 0.489 µM
TGI (OVCAR-5 ovarian): > 62.4 µM
GI50 (COLO 205 colon): 0.45 µM
TGI (COLO 205 colon): > 23.2 µM
GI50 (MALME-3M melanoma): 0.235 µM
TGI (MALME-3M melanoma): 0.712 µM
GI50 (PC-3 prostate): 0.244 µM
TGI (PC-3 prostate): 0.656 µM

NS(=O)(=O)c1ccc2c(c1)OCCOCCOCCOCCO2
TGI (MCF7 breast): > 100 µM
TGI (CCRF-CEM leukemia): > 100 µM
TGI (K-562 leukemia): > 100 µM
TGI (SK-OV-3 ovarian): > 100 µM
TGI (OVCAR-8 ovarian): > 100 µM
TGI (786-0 renal): > 100 µM
TGI (COLO 205 colon): > 100 µM
TGI (MALME-3M melanoma): > 100 µM
TGI (PC-3 prostate): > 100 µM

COC(=O)/C=C1\S/C(=N\NC(=O)c2cc3ccc2/C=C\c2ccc(cc2)/C=C\3)N(c2ccccc2)C1=O
GI50 (MCF7 breast): 1.87 µM
TGI (MCF7 breast): 4.95 µM
GI50 (K-562 leukemia): 3.15 µM
TGI (K-562 leukemia): > 100 µM
GI50 (SK-OV-3 ovarian): 3.55 µM
TGI (SK-OV-3 ovarian): 75.3 µM
GI50 (OVCAR-8 ovarian): 3.08 µM
TGI (OVCAR-8 ovarian): > 100 µM
GI50 (786-0 renal): 2 µM
TGI (786-0 renal): 4.38 µM
GI50 (OVCAR-5 ovarian): 1.92 µM
TGI (OVCAR-5 ovarian): 3.84 µM
GI50 (MALME-3M melanoma): 3.27 µM
TGI (MALME-3M melanoma): 21.4 µM
GI50 (PC-3 prostate): 1.71 µM
TGI (PC-3 prostate): 3.63 µM

Cc1ccsc1C(=S)Nc1ccc(Cl)c(/C=N/OC(C)(C)C)c1
TGI (MCF7 breast): > 100 µM
TGI (CCRF-CEM leukemia): > 100 µM
TGI (SK-OV-3 ovarian): > 100 µM
TGI (OVCAR-8 ovarian): > 100 µM
TGI (786-0 renal): 57.2 µM
TGI (OVCAR-5 ovarian): > 100 µM
TGI (COLO 205 colon): 33.7 µM
TGI (MALME-3M melanoma): > 100 µM
TGI (PC-3 prostate): > 100 µM

CCOC1Oc2ccccc2C(=O)/C1=C/Nc1ccc(C(C)=O)cc1 (configuration not stated)
GI50 (MCF7 breast): 26.7 µM
TGI (MCF7 breast): > 100 µM
GI50 (CCRF-CEM leukemia): 19.2 µM
TGI (CCRF-CEM leukemia): 62.2 µM
GI50 (K-562 leukemia): 16.1 µM
TGI (K-562 leukemia): 40.5 µM
GI50 (SK-OV-3 ovarian): 44.4 µM
TGI (SK-OV-3 ovarian): > 100 µM
GI50 (OVCAR-8 ovarian): 16.3 µM
TGI (OVCAR-8 ovarian): 45 µM
GI50 (786-0 renal): 6.56 µM
TGI (786-0 renal): 25.4 µM
GI50 (OVCAR-5 ovarian): 19.5 µM
TGI (OVCAR-5 ovarian): 48.3 µM
GI50 (COLO 205 colon): 55.2 µM
TGI (COLO 205 colon): > 100 µM
GI50 (PC-3 prostate): 25.4 µM
TGI (PC-3 prostate): 93.3 µM

Nc1nc(-n2c(-c3ccccc3)nc3c(Br)cc(Br)cc3c2=O)nnc1-c1cccc(Cl)c1Cl
GI50 (MCF7 breast): 4.9 µM
TGI (MCF7 breast): > 100 µM
GI50 (CCRF-CEM leukemia): 5.33 µM
TGI (CCRF-CEM leukemia): > 100 µM
GI50 (K-562 leukemia): 4.7 µM
TGI (K-562 leukemia): 7.66 µM
GI50 (SK-OV-3 ovarian): 27.2 µM
TGI (SK-OV-3 ovarian): > 100 µM
GI50 (OVCAR-8 ovarian): 17.2 µM
TGI (OVCAR-8 ovarian): > 100 µM
GI50 (786-0 renal): 11.2 µM
TGI (786-0 renal): 60.7 µM
GI50 (OVCAR-5 ovarian): 6.22 µM
TGI (OVCAR-5 ovarian): 50.9 µM
GI50 (COLO 205 colon): 8.88 µM
TGI (COLO 205 colon): > 100 µM
GI50 (PC-3 prostate): 26.6 µM
TGI (PC-3 prostate): > 100 µM

C=CCOc1ccc2c(C)cc(=O)oc2c1C
TGI (MCF7 breast): > 100 µM
TGI (CCRF-CEM leukemia): > 100 µM
TGI (K-562 leukemia): > 100 µM
TGI (OVCAR-8 ovarian): > 100 µM
TGI (786-0 renal): > 100 µM
TGI (OVCAR-5 ovarian): > 100 µM
TGI (COLO 205 colon): > 100 µM
TGI (MALME-3M melanoma): > 100 µM
TGI (PC-3 prostate): > 100 µM

O=[N+]([O-])c1cccc(-c2csc(NNC3=NC/C(=C/c4ccc5c(c4)OCO5)S3)n2)c1
TGI (MCF7 breast): > 100 µM
TGI (CCRF-CEM leukemia): > 100 µM
TGI (K-562 leukemia): > 100 µM
TGI (SK-OV-3 ovarian): 79 µM
TGI (OVCAR-8 ovarian): 47.2 µM
TGI (786-0 renal): > 100 µM
TGI (OVCAR-5 ovarian): > 100 µM
TGI (COLO 205 colon): 98.7 µM
TGI (PC-3 prostate): 55.8 µM

CO/C(=N\N=C\c1ccc(C(F)(F)F)cc1)c1ccncc1
TGI (MCF7 breast): > 10 µM
TGI (CCRF-CEM leukemia): > 10 µM
TGI (K-562 leukemia): > 10 µM
TGI (OVCAR-8 ovarian): > 10 µM
TGI (786-0 renal): > 10 µM
TGI (OVCAR-5 ovarian): > 10 µM
TGI (COLO 205 colon): > 10 µM
TGI (MALME-3M melanoma): > 10 µM
TGI (PC-3 prostate): > 10 µM
